In patent US11034648B2, “Cystobactamide derivatives” (priority 2017, dated 2021):
pIC50: −log10 of the molar value. ≈ marks a conversion by molar mass, not a printed value.

What was measured:
[1] = test system: E. faecalis ATCC-29212; assay: MIC, microbroth dilution susceptibility assay; type: cell-based; details: large panel, Table 2a; TSB
Method in brief: (§1)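 First, overnight cultures were diluted into cation-adjusted Müller-Hinton broth at 10^4-10^6 cfu/mL. Next, they were exposed to serial compound dilutions for approx. 16 h at 30-37° C. Finally, wells were inspected visually and the MIC assigned where growth was absent.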

[2] = test system: A. baumannii DSM-30008; assay: MIC, microbroth dilution susceptibility assay; type: cell-based; details: large panel, Table 2a
Method in brief: as §1

[3] = test system: E. cloacae DSM-30054; assay: MIC, microbroth dilution susceptibility assay; type: cell-based; details: large panel, Table 2a
Method in brief: as §1

[4] = test system: S. epidermidis DSM-28765; assay: MIC, microbroth dilution susceptibility assay; type: cell-based; details: large panel, Table 2a
Method in brief: as §1

[5] = test system: E. coli WT DSM-1116; assay: MIC, microbroth dilution susceptibility assay; type: cell-based; details: small panel, Tables 1a/1b; no visual growth after approx. 16 h
Method in brief: as §1

[6] = test system: P. mirabilis DSM-2140; assay: MIC, microbroth dilution susceptibility assay; type: cell-based; details: large panel, Table 2a
Method in brief: as §1

[7] = test system: P. vulgaris DSM-2140; assay: MIC, microbroth dilution susceptibility assay; type: cell-based; details: large panel, Table 2a
Method in brief: as §1

[8] = test system: S. pneumoniae DSM-20566; assay: MIC, microbroth dilution susceptibility assay; type: cell-based; details: large panel, Table 2a; TSB
Method in brief: as §1

[9] = test system: E. coli WT; assay: MIC, microbroth dilution susceptibility assay; type: cell-based
Method in brief: as §1

[10] = test system: P. aeruginosa DSM-46316; assay: MIC, microbroth dilution susceptibility assay; type: cell-based; details: large panel, Table 2a
Method in brief: as §1

[11] = test system: S. aureus ATCC-29213; assay: MIC, microbroth dilution susceptibility assay; type: cell-based; details: large panel, Table 2a
Method in brief: as §1

[12] = test system: S. aureus Newman; assay: MIC, microbroth dilution susceptibility assay; type: cell-based; details: small panel, Tables 1a/1b
Method in brief: as §1

[13] = test system: K. pneumoniae DSM-30104; assay: MIC, microbroth dilution susceptibility assay; type: cell-based; details: large panel, Table 2a
Method in brief: as §1

[14] = test system: P. aeruginosa DSM-24600; assay: MIC, microbroth dilution susceptibility assay; type: cell-based; details: large panel, Table 2a
Method in brief: as §1

[15] = test system: P. aeruginosa WT PA14; assay: MIC, microbroth dilution susceptibility assay; type: cell-based; details: small panel, Tables 1a/1b
Method in brief: as §1

[16] = test system: S. marcescens DSM-30121; assay: MIC, microbroth dilution susceptibility assay; type: cell-based; details: large panel, Table 2a
Method in brief: as §1

[17] = test system: C. freundii DSM-30039; assay: MIC, microbroth dilution susceptibility assay; type: cell-based; details: large panel, Table 2a
Method in brief: as §1

[18] = test system: E. aerogenes DSM-30053; assay: MIC, microbroth dilution susceptibility assay; type: cell-based; details: large panel, Table 2a
Method in brief: as §1

[19] = test system: E. cloacae; assay: MIC, microbroth dilution susceptibility assay (Table 2b); type: cell-based; details: larger panel
Experimental: (§2) Cystobactamid derivatives synthesized were tested against relevant Gram negative and positive bacteria of clinical interest. Experimental procedures used for the biological characterization of the compounds are the same as previously described in WO 2016/082934.
(§3) Bacterial strains used in susceptibility assays (minimum inhibitory concentration, MIC) were either part of our internal strain collection or purchased from the German Collection of Microorganisms and Cell Cultures (Deutsche Sammlung von Mikroorganismen und Zellkulturen, DSMZ) and the American Type Culture Collection (ATCC). The susceptible E. coli strain (WT) and fluoroquinolone-resistant mutants E. coli WT-3 and WT-III were kindly provided by Prof Dr. P. Heisig, Pharmaceutical Biology and Microbiology, University of Hamburg, Germany. The efflux-deficient strain P. aeruginosa ΔmexAB was kindly provided by Prof Dr. S. Häußler, Institute for Molecular Bacteriology, TWINCORE, Hannover, Germany. All compounds were prepared as DMSO stocks and MIC values were determined in standard microbroth dilution assays in 96-well MTPs as described in Baumann et al., Angew Chem Int Ed Engl. 2014; 53(52):14605-9. In brief, overnight cultures of bacteria were diluted in either tryptic soy broth (TSB: 1.7% peptone casein, 0.3% peptone soymeal, 0.25% glucose, 0.5% NaCl, 0.25% K2HPO4; pH 7.3; S. pneumoniae and E. faecalis) or cation-adjusted Müller-Hinton Broth (BBL™, BD; all other bacteria) and adjusted to 10^4-10^6 cfu/mL. Bacteria were grown in the presence of the derivatives in serial dilution for approx. 16 h at 30-37° C. MIC values were determined and were defined as the antibiotic concentration at which no visual growth of bacteria was observed.

[20] = test system: S. marcescens; assay: as above; type: cell-based; details: larger panel
Experimental: as §2, §3

[21] = test system: P. aeruginosa ESBL 1; assay: as above; type: cell-based; details: larger panel
Experimental: as §2, §3

[22] = test system: A. baumannii; assay: as above; type: cell-based; details: larger panel
Experimental: as §2, §3

[23] = test system: E. aerogenes; assay: as above; type: cell-based; details: larger panel
Experimental: as §2, §3

[24] = test system: S. epidermidis; assay: as above; type: cell-based; details: larger panel
Experimental: as §2, §3

[25] = test system: E. faecalis; assay: as above; type: cell-based; details: larger panel
Experimental: as §2, §3

[26] = test system: K. pneumoniae; assay: as above; type: cell-based; details: larger panel
Experimental: as §2, §3

[27] = test system: C. freundii; assay: as above; type: cell-based; details: larger panel
Experimental: as §2, §3

[28] = test system: P. vulgaris; assay: as above; type: cell-based; details: larger panel
Experimental: as §2, §3

[29] = test system: P. mirabilis; assay: as above; type: cell-based; details: larger panel
Experimental: as §2, §3

[30] = test system: P. aeruginosa ESBL 2; assay: as above; type: cell-based; details: larger panel
Experimental: as §2, §3

[31] = test system: E. coli WT-III [marRΔ74bp]; type: cell-based; details: fluoroquinolone-resistant mutant; Table 2a
Experimental: as §2, §3

[32] = target: T1, E. coli gyrase (Escherichia coli, UniProt P0AES4+P0AES6); assay: E. coli gyrase supercoiling (sc) assay; type: biochemical; details: supercoiling assay kit, agarose gel quantification; read-out: Ec gyrase sc IC50
T1 construct: purchased Inspiralis
Experimental: The target activity on E. coli gyrase was assessed as described in Baumann et al., Angew Chem Int Ed Engl. 2014; 53(52):14605-9 using a commercial supercoiling (sc) assay kit from Inspiralis according to the manufacturer's instructions. The samples were separated on 0.8% (w/v) agarose gels and relaxed and supercoiled plasmid was visualized by ethidium bromide staining. Half-inhibitory concentrations (IC50) were calculated after image analysis and quantification (ImageJ) based on sigmoidal curve fitting (OriginPro).

[33] = test system: E. coli ΔtolC; assay: microbe, parasite or virus in culture; type: cell-based; details: small panel, Tables 1a/1b; no visual growth after approx. 16 h
Method in brief: as §1

[34] = test system: E. coli WT-3 [gyrA(S83L,D87G)]; assay: microbe, parasite or virus in culture; type: cell-based
Method in brief: as §1

[35] = test system: P. aeruginosa ΔmexAB; assay: microbe, parasite or virus in culture; type: cell-based; details: efflux-deficient strain; small panel, Tables 1a/1b
Method in brief: as §1

## CO[C@@H](C(N)=O)[C@H](NC(=O)c1ccc(NC(=O)c2ccc([N+](=O)[O-])cc2)cc1)C(=O)Nc1ccc(C(=O)Nc2ccc(C(=O)Nc3ccc(C(=O)O)cc3)c(O)c2OC(C)C)cc1 [Cys861-2, reference compound]
[1]
  MIC E. faecalis ATCC-29212: 1 µg/mL (≈ 1.16 µM)
[2]
  MIC A. baumannii DSM-30008: 0.5 µg/mL (≈ 0.58 µM)
[3]
  MIC E. cloacae DSM-30054: 64 µg/mL (≈ 74.3 µM)
[4]
  MIC S. epidermidis DSM-28765: 0.5 µg/mL (≈ 0.58 µM)
[5]
  MIC E. coli WT DSM-1116: 0.125 µg/mL (≈ 0.145 µM)
[6]
  MIC P. mirabilis DSM-2140: >64 µg/mL
[7]
  MIC P. vulgaris DSM-2140: 0.25 µg/mL (≈ 0.29 µM)
[8]
  MIC S. pneumoniae DSM-20566: 0.06 µg/mL (≈ 0.0696 µM)
[9]; large panel, Table 2a
  MIC E. coli WT: 0.13 µg/mL (≈ 0.151 µM)
[9]; larger panel, Table 2b
  MIC E. coli WT: 0.06 µg/mL (≈ 0.0696 µM)
[10]
  MIC P. aeruginosa DSM-46316: 2 µg/mL (≈ 2.32 µM)
[11]
  MIC S. aureus ATCC-29213: 0.25 µg/mL (≈ 0.29 µM)
[12]
  MIC S. aureus Newman: 0.5 µg/mL (≈ 0.58 µM)
[13]
  MIC K. pneumoniae DSM-30104: >64 µg/mL
[14]
  MIC P. aeruginosa DSM-24600: 1 µg/mL (≈ 1.16 µM)
[15]
  MIC P. aeruginosa WT PA14: 2 µg/mL (≈ 2.32 µM)
[16]
  MIC S. marcescens DSM-30121: 64 µg/mL (≈ 74.3 µM)
[17]
  MIC C. freundii DSM-30039: 0.06 µg/mL (≈ 0.0696 µM)
[18]
  MIC E. aerogenes DSM-30053: >64 µg/mL
[19]
  MIC E. cloacae: >64 µg/mL
[20]
  MIC S. marcescens: >64 µg/mL
[21]
  MIC P. aeruginosa ESBL 1: 4 µg/mL (≈ 4.64 µM)
[22]
  MIC A. baumannii: 1 µg/mL (≈ 1.16 µM)
[23]
  MIC E. aerogenes: >64 µg/mL
[24]
  MIC S. epidermidis: 0.5 µg/mL (≈ 0.58 µM)
[25]
  MIC E. faecalis: 1 µg/mL (≈ 1.16 µM)
[26]
  MIC K. pneumoniae: >64 µg/mL
[27]
  MIC C. freundii: 0.125 µg/mL (≈ 0.145 µM)
[28]
  MIC P. vulgaris: 0.25 µg/mL (≈ 0.29 µM)
[29]
  MIC P. mirabilis: 32 µg/mL (≈ 37.1 µM)
[30]
  MIC P. aeruginosa ESBL 2: 2 µg/mL (≈ 2.32 µM)
[31]
  MIC E. coli WT-III [marRΔ74bp]: 0.5 µg/mL (≈ 0.58 µM)
[32]
  pIC50: 6.66
[33]
  MIC E. coli ΔtolC: 0.125 µg/mL (≈ 0.145 µM)
[34]; fluoroquinolone-resistant mutant, Table 2a
  MIC E. coli WT-3 [gyrA(S83L, D87G)]: 0.5 µg/mL (≈ 0.58 µM)
[34]; larger panel, Table 2b
  MIC E. coli WT-3 [gyrA(S83L, D87G)]: 0.5 µg/mL (≈ 0.58 µM)
[35]
  MIC P. aeruginosa ΔmexAB: 0.5 µg/mL (≈ 0.58 µM)
